System: 233499-124-R-J3-PDC complex spheroid growth
Assay: Anticancer human tumor 233499-124-R-J3-PDC patient-derived colon adenocarcinoma cell line growth inhibition [AhR]
Conditions: for IC50: curve of first compound; for viability, T/C: stronger effect = lower value
Summary of the method: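 Spheroids combined tumor cells with HUVEC endothelial cells and human MSCs as stroma. AhR antagonists were paired with standard or investigational drugs, each dosed in half-log steps down from near clinical Cmax, or from 10 microM where Cmax was unknown.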

[1] = second compound 0.1 µM, first compound 0.0316 µM
[2] = second compound 0.1 µM, first compound 0.1 µM
[3] = second compound 0.1 µM, first compound 0.316 µM
[4] = second compound 0.1 µM, first compound 1 µM
[5] = second compound 0.1 µM, first compound 3.16 µM
[6] = second compound 0.1 µM, first compound 10 µM
[7] = second compound 0.316 µM, first compound 0.0316 µM
[8] = second compound 0.316 µM, first compound 0.1 µM
[9] = second compound 0.316 µM, first compound 0.316 µM
[10] = second compound 0.316 µM, first compound 1 µM
[11] = second compound 0.316 µM, first compound 3.16 µM
[12] = second compound 0.316 µM, first compound 10 µM
[13] = second compound 1 µM, first compound 0.0316 µM
[14] = second compound 1 µM, first compound 0.1 µM
[15] = second compound 1 µM, first compound 0.316 µM
[16] = second compound 1 µM, first compound 1 µM
[17] = second compound 1 µM, first compound 3.16 µM
[18] = second compound 1 µM, first compound 10 µM
[19] = second compound 3.16 µM, first compound 0.0316 µM
[20] = second compound 3.16 µM, first compound 0.1 µM
[21] = second compound 3.16 µM, first compound 0.316 µM
[22] = second compound 3.16 µM, first compound 1 µM
[23] = second compound 3.16 µM, first compound 3.16 µM
[24] = second compound 3.16 µM, first compound 10 µM
[25] = second compound 10 µM, first compound 0.0316 µM
[26] = second compound 10 µM, first compound 0.1 µM
[27] = second compound 10 µM, first compound 0.316 µM
[28] = second compound 10 µM, first compound 1 µM
[29] = second compound 10 µM, first compound 3.16 µM
[30] = second compound 10 µM, first compound 10 µM
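Also: spheroids exposed to agents for seven days before reading.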

CC(C)c1c(-c2ccccc2)nc2c(C#N)c[nH]n2c1=O + Cc1cncc(-c2nc(NCCc3c[nH]c4ccccc34)c3ncn(C(C)C)c3n2)c1
IC50 (second compound 0.1 µM): > 10000 nM | IC50 (second compound 0.316 µM): > 10000 nM | IC50 (second compound 1 µM): > 10000 nM | IC50 (second compound 3.16 µM): > 10000 nM | IC50 (second compound 10 µM): < 31.6 nM | viability, T/C [1]: 88.8% | viability, T/C [2]: 100% | viability, T/C [3]: 96.5% | viability, T/C [4]: 108% | viability, T/C [5]: 101% | viability, T/C [6]: 108% | viability, T/C [7]: 89.9% | viability, T/C [8]: 88.9% | viability, T/C [9]: 87.4% | viability, T/C [10]: 86.3% | viability, T/C [11]: 86.2% | viability, T/C [12]: 85.2% | viability, T/C [13]: 84.5% | viability, T/C [14]: 79.2% | viability, T/C [15]: 71.5% | viability, T/C [16]: 73.8% | viability, T/C [17]: 79.2% | viability, T/C [18]: 84% | viability, T/C [19]: 72.5% | viability, T/C [20]: 86.5% | viability, T/C [21]: 74.6% | viability, T/C [22]: 60.9% | viability, T/C [23]: 73.3% | viability, T/C [24]: 77.2% | viability, T/C [25]: 1.69% | viability, T/C [26]: 2.34% | viability, T/C [27]: 4.08% | viability, T/C [28]: 2.26% | viability, T/C [29]: 2.36% | viability, T/C [30]: 2.85%

CC1COCCN1c1cc(-c2ccnn2C)c2ccnc(-c3ccn[nH]3)c2n1 (stereo not given) + Cc1cncc(-c2nc(NCCc3c[nH]c4ccccc34)c3ncn(C(C)C)c3n2)c1
IC50 (second compound 0.1 µM): 546 nM | IC50 (second compound 0.316 µM): 525 nM | IC50 (second compound 1 µM): > 1000 nM | IC50 (second compound 3.16 µM): 293 nM | IC50 (second compound 10 µM): < 3.16 nM | viability, T/C (second compound 0.1 µM, first compound 0.00316 µM): 106% | viability, T/C (second compound 0.1 µM, first compound 0.01 µM): 89.7% | viability, T/C [1]: 102% | viability, T/C [2]: 74.6% | viability, T/C [3]: 62.6% | viability, T/C [4]: 37.8% | viability, T/C (second compound 0.316 µM, first compound 0.00316 µM): 85.3% | viability, T/C (second compound 0.316 µM, first compound 0.01 µM): 92.6% | viability, T/C [7]: 76.2% | viability, T/C [8]: 81.1% | viability, T/C [9]: 60.2% | viability, T/C [10]: 35.8% | viability, T/C (second compound 1 µM, first compound 0.00316 µM): 66.5% | viability, T/C (second compound 1 µM, first compound 0.01 µM): 63% | viability, T/C [13]: 69.3% | viability, T/C [14]: 72.9% | viability, T/C [15]: 53.5% | viability, T/C [16]: 50.2% | viability, T/C (second compound 3.16 µM, first compound 0.00316 µM): 66.7% | viability, T/C (second compound 3.16 µM, first compound 0.01 µM): 74.1% | viability, T/C [19]: 73.1% | viability, T/C [20]: 63.8% | viability, T/C [21]: 49.4% | viability, T/C [22]: 40.2% | viability, T/C (second compound 10 µM, first compound 0.00316 µM): 3.13% | viability, T/C (second compound 10 µM, first compound 0.01 µM): 3.32% | viability, T/C [25]: 3.34% | viability, T/C [26]: 4.58% | viability, T/C [27]: 3.11% | viability, T/C [28]: 5.96%

COc1ccc([C@@H](O)c2cc(-c3ncnc4cc(N5CCOCC5)ccc34)c(F)cc2Cl)nn1 + Cc1cncc(-c2nc(NCCc3c[nH]c4ccccc34)c3ncn(C(C)C)c3n2)c1
IC50 (second compound 0.1 µM): > 10000 nM | IC50 (second compound 0.316 µM): > 10000 nM | IC50 (second compound 1 µM): > 10000 nM | IC50 (second compound 3.16 µM): > 10000 nM | IC50 (second compound 10 µM): < 31.6 nM | viability, T/C [1]: 87.6% | viability, T/C [2]: 82.5% | viability, T/C [3]: 84.5% | viability, T/C [4]: 90.5% | viability, T/C [5]: 70.3% | viability, T/C [6]: 64.1% | viability, T/C [7]: 95.3% | viability, T/C [8]: 77.3% | viability, T/C [9]: 79.8% | viability, T/C [10]: 64.5% | viability, T/C [11]: 70.4% | viability, T/C [12]: 67.7% | viability, T/C [13]: 75.7% | viability, T/C [14]: 73.3% | viability, T/C [15]: 65.7% | viability, T/C [16]: 66.4% | viability, T/C [17]: 60.8% | viability, T/C [18]: 67.5% | viability, T/C [19]: 74.2% | viability, T/C [20]: 72.7% | viability, T/C [21]: 68.1% | viability, T/C [22]: 69% | viability, T/C [23]: 61.4% | viability, T/C [24]: 71.7% | viability, T/C [25]: 1.87% | viability, T/C [26]: 1.89% | viability, T/C [27]: 4.9% | viability, T/C [28]: 2.28% | viability, T/C [29]: 1.45% | viability, T/C [30]: 4.49%

— PubChem BioAssay AID1918993 (Molecular Pharmacology Branch, DTP, NCI, 2023)
